Key:
Format in all cases: in vivo
[1] = test system: Alopecurus myosuroides (ALOMY); assay: Pre-emergence biological efficacy, glasshouse pot test; settings: 312 h, pre-emergence, rate 1,000 g/ha, evaluated after 13 days (100=total damage to plant; 0=no damage), read-out: Percentage damage caused to weed species, ALOMY
How it was run: (§1)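 Seeds sown in standard soil in pots, held one day in glasshouse (24/16 °C day/night, 14 h light, 65% humidity), then sprayed with aqueous solution from acetone/water (50:50) formulation with 0.5% Tween 20 at 1000 or 250 g/ha. Damage scored after 13 days (0 = none, 100 = total).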

[2] = test system: Amaranthus retoflexus (AMARE); assay: as above; settings: Amaranthus retroflexus, 312 h; pre-emergence, rate 1,000 g/ha, evaluated after 13 days (100=total damage to plant; 0=no damage); read-out: Percentage damage caused to weed species, AMARE
How it was run: as §1

[3] = test system: Echinochloa crus-galli (ECHCG); assay: as above; settings: 312 h, pre-emergence, rate 1,000 g/ha, evaluated after 13 days (100=total damage to plant; 0=no damage), read-out: Percentage damage caused to weed species, ECHCG
How it was run: as §1

[4] = test system: Ipomea hederaceae (IPOHE); assay: as above; settings: Ipomoea hederacea, 312 h; pre-emergence, rate 1,000 g/ha, evaluated after 13 days (100=total damage to plant; 0=no damage); read-out: Percentage damage caused to weed species, IPOHE
How it was run: as §1

Setaria faberi (SETFA) [5] = assay: as above; settings: 312 h, pre-emergence, rate 1,000 g/ha, evaluated after 13 days (100=total damage to plant; 0=no damage), read-out: Percentage damage caused to weed species, SETFA
How it was run: as §1

Solanum nigrum (SOLNI) [6] = assay: as above; settings: 312 h, pre-emergence, rate 1,000 g/ha, evaluated after 13 days (100=total damage to plant; 0=no damage), read-out: Percentage damage caused to weed species, SOLNI
How it was run: as §1

[7] = test system: Alopecurus myosuroides (ALOMY); assay: Post-emergence biological efficacy, glasshouse pot test; settings: 312 h, Rate 1,000 g/ha, post-emergence spray, evaluated after 13 days (100=total damage to plant; 0=no damage to plant), read-out: Percentage damage caused to weed species, post-emergence, ALOMY
How it was run: (§2)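 Plants were sown in standard soil and grown 8 days in a glasshouse (24/16° C. day/night, 14 hours light, 65% humidity), then sprayed post-emergence at 1000 or 250 g/ha from acetone/water (50:50) with 0.5% Tween 20. Damage was scored visually after 13 days (0 = none, 100 = total).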

[8] = test system: Amaranthus retoflexus (AMARE); assay: as above; settings: Amaranthus retroflexus, 312 h; Rate 1,000 g/ha; post-emergence spray; evaluated after 13 days (100=total damage to plant; 0=no damage to plant); read-out: Percentage damage caused to weed species, post-emergence, AMARE
How it was run: as §2

[9] = test system: Echinochloa crus-galli (ECHCG); assay: as above; settings: 312 h, Rate 1,000 g/ha, post-emergence spray, evaluated after 13 days (100=total damage to plant; 0=no damage to plant), read-out: Percentage damage caused to weed species, post-emergence, ECHCG
How it was run: as §2

[10] = test system: Ipomea hederaceae (IPOHE); assay: as above; settings: Ipomoea hederacea, 312 h; Rate 1,000 g/ha; post-emergence spray; evaluated after 13 days (100=total damage to plant; 0=no damage to plant); read-out: Percentage damage caused to weed species, post-emergence, IPOHE
How it was run: as §2

Setaria faberi (SETFA) [11] = assay: as above; settings: 312 h, Rate 1,000 g/ha, post-emergence spray, evaluated after 13 days (100=total damage to plant; 0=no damage to plant), read-out: Percentage damage caused to weed species, post-emergence, SETFA
How it was run: as §2

Solanum nigrum (SOLNI) [12] = assay: as above; settings: 312 h, Rate 1,000 g/ha, post-emergence spray, evaluated after 13 days (100=total damage to plant; 0=no damage to plant), read-out: Percentage damage caused to weed species, post-emergence, SOLNI
How it was run: as §2

Compound	pest or weed control at 1000 g/ha [1] [%]	pest or weed control at 1000 g/ha [2] [%]	pest or weed control at 1000 g/ha [3] [%]	pest or weed control at 1000 g/ha [4] [%]	pest or weed control at 1000 g/ha (Setaria faberi (SETFA) [5]) [%]	pest or weed control at 1000 g/ha (Solanum nigrum (SOLNI) [6]) [%]	pest or weed control at 1000 g/ha [7] [%]	pest or weed control at 1000 g/ha [8] [%]	pest or weed control at 1000 g/ha [9] [%]	pest or weed control at 1000 g/ha [10] [%]	pest or weed control at 1000 g/ha (Setaria faberi (SETFA) [11]) [%]	pest or weed control at 1000 g/ha (Solanum nigrum (SOLNI) [12]) [%]
COC(=O)c1nc(-c2ccc(OC(F)(F)F)cc2)nc(NCc2ccco2)c1Cl [Compound 248-48, 5-Chloro-4-(furan-2-ylmethylamino)-6-methoxycarbonyl-2-(4-trifluoromethoxy-phenyl)pyrimidine]	0	60	0	0	0	20	0	70	40	50	0	70
COC(=O)c1nc(-c2cccc(OC)c2F)nc(NCc2ccco2)c1Cl [Compound 249-48, 5-Chloro-2-(2-fluoro-3-methoxyphenyl)-4-(furan-2-ylmethyl-amino)-6-methoxy-carbonylpyrimidine]	0	70	0	20	20	30	0	70	0	30	0	70
COC(=O)c1nc(-c2ccc(OC)cc2)nc(NCc2ccco2)c1Cl [Compound 250-48, 5-Chloro-4-(furan-2-ylmethylamino)-2-(4-methoxyphenyl)-6-methoxycarbonyl-pyrimidine]	0	30	0	0	20	0	0	90	30	30	50	40
COC(=O)c1nc(-c2ccc(OC)cc2C)nc(NCc2ccco2)c1Cl [Compound 251-48, 5-Chloro-4-(furan-2-yl-methylamino)-2-(4-methoxy-2-methyl-pheny)-6-methoxy-carbonylpyrimidine]	0	0	0	0	0	0	0	0	0	0	0	20
COC(=O)c1nc(-c2ccc(OC)cc2OC)nc(NCc2ccco2)c1Cl [Compound 252-48, 5-Chloro-2-(2,4-dimethoxyphenyl)-4-(furan-2-yl-methyl-amino)-6-methoxy-carbonylpyrimidine]	0	0	0	0	20	0	0	30	0	30	0	20
COC(=O)c1nc(-c2ccc(OC)c(Cl)c2)nc(NCc2ccco2)c1Cl [Compound 254-48, 5-Chloro-2-(3-chloro-4-methoxyphenyl)-4-(furan-2-yl-methyl-amino)-6-methoxy-carbonylpyrimidine]	0	0	0	0	0	0	0	20	0	10	0	30
COC(=O)c1nc(-c2ccc(C)c(C)c2)nc(NCc2ccco2)c1Cl [Compound 255-48, 5-Chloro-2-(3,4-dimethylphenyl)-4-(furan-2-yl-methyl-amino)-6-methoxy-carbonylpyrimidine]	0	20	0	10	0	0	0	70	0	10	0	40
COC(=O)c1nc(-c2ccc(C)c([N+](=O)[O-])c2)nc(NCc2ccco2)c1Cl [Compound 256-48, 5-Chloro-4-(furan-2-ylmethylamino)-6-methoxycarbonyl-2-(4-methyl-3-nitrophenyl)-pyrimidine]	0	80	0	0	0	0	0	30	0	20	10	50
COC(=O)c1nc(-c2ccc(C)cc2F)nc(NCc2ccco2)c1Cl [Compound 257-48, 5-Chloro-2-(2-fluoro-4-methylphenyl)-4-(furan-2-ylmethylamino)-6-methoxycarbonyl-pyrimidine]	20	90	40	30	10	10	20	100	10	60	0	40
COC(=O)c1nc(-c2ccc(OC)cc2F)nc(NCc2ccco2)c1Cl [Compound 258-48, 5-Chloro-2-(2-fluoro-4-methoxyphenyl)-4-(furan-2-ylmethyl-amino)-6-methoxy-carbonylpyrimidine]	30	70	0	30	20	0	10	90	0	30	40	50
